One test relates to Propioni acnes 6916. Briefly: Minimum bacteriostatic inhibitory concentration, Agar dilution method. It is filed as cell-based. In general terms: In agar dilution the substance is mixed into plates at graded concentrations.
The subject of another test is Bact. vulgatus 1446. The description is as above. The format is cell-based.
The next test has as its system Staph. aureus 503. The description is as above. It is filed as cell-based.
A further test deals with Bact. fragilis 312. The description is as above. The format is cell-based.
The subject of another test is Staph. aureus 285. Described as above. It is filed as cell-based.
In a further test the test system is Bact. fragilis 960. Described as above. It is filed as cell-based.
The test system of a further test is Strept. pyogenes 308 A. Described as above. It is filed as cell-based.
Another test deals with Strept. faecium D. The description is as above. The format is cell-based.
Test [1] deals with Clostridium perfringens 194. The settings on record: Agar dilution method.
Another test relates to Escherichia coli DC 2. Briefly: Minimum bacteriostatic inhibitory concentration, Agar dilution method. It is filed as cell-based.
The test system of test [2] is Clostridium tetani ATCC 1940650. To be noted: Agar dilution method.
The test system of another test is Staph. aureus SG 511. Briefly: Minimum bacteriostatic inhibitory concentration, Agar dilution method. It is filed as cell-based.
Test [3] deals with Peptostrept. anaerob. 932. Described as above. The format is cell-based.
The test system of the next test is Strept. pyogenes 77 A. The description is as above. The format is cell-based.
The subject of a further test is Bact. fragilis 1313. The description is as above. It is filed as cell-based.
The test system of a further test is Propioni acnes 6922. The test is described as above. It is filed as cell-based.

Structures are written as SMILES. A value given as a limit tells only on which side of the number the result lay.

In the case of `CC(C)CC(N)C(=O)NC1C(=O)NC(CC(N)=O)C(=O)NC2C(=O)NC3C(=O)NC(C(=O)NC(C(=O)O)c4cc(O)cc(O)c4-c4cc3ccc4O)C(OC3CC(C)(N)C(=O)C(C)O3)c3ccc(c(Cl)c3)Oc3cc2cc(c3OC2OC(CO)C(O)C(O)C2O)Oc2ccc(cc2Cl)C1O` (centres unmarked) [Desmethylbalhimycin, desmethylbalhimycin], the “Minimum bacteriostatic inhibitory concentration” value is 0.8 micrograms per milliliter with Propioni acnes 6916; 50 micrograms per milliliter in the test on Bact. vulgatus 1446; 0.05 micrograms per milliliter with Staph. aureus 503; 100 micrograms per milliliter in the test on Bact. fragilis 312; 0.1 micrograms per milliliter in the test with Staph. aureus 285; 25 micrograms per milliliter in the test on Bact. fragilis 960. For the same compound, the “Minimum bacteriostatic inhibitory concentration” value in the test on Strept. pyogenes 308 A stood at 0.05 micrograms per milliliter; with Strept. faecium D, 0.2 micrograms per milliliter; in [1], 0.2 micrograms per milliliter; in the test with Escherichia coli DC 2, 10 micrograms per milliliter; in [2] it was 50 micrograms per milliliter; in the test with Staph. aureus SG 511 it was 0.1 micrograms per milliliter. The “Minimum bacteriostatic inhibitory concentration” value is given as 25 micrograms per milliliter in test [3], 0.05 micrograms per milliliter with Strept. pyogenes 77 A, 50 micrograms per milliliter with Bact. fragilis 1313 and 0.4 micrograms per milliliter in the test with Propioni acnes 6922.

Turning to `CC(C)C[C@H](C(=O)N[C@H]1C(=O)NC(CC(N)=O)C(=O)N[C@H]2C(=O)N[C@H]3C(=O)N[C@H](C(=O)N[C@@H](C(=O)O)c4cc(O)cc(O)c4-c4cc3ccc4O)[C@H](O[C@H]3C[C@](C)(N)C(=O)[C@H](C)O3)c3ccc(c(Cl)c3)Oc3cc2cc(c3O[C@@H]2O[C@H](CO)[C@@H](O)[C@H](O)[C@H]2O)Oc2ccc(cc2Cl)[C@H]1O)N(C)C` (some centres unmarked) [Methylbalhimycin, methylbalhimycin], the “Minimum bacteriostatic inhibitory concentration” value with Propioni acnes 6916 is given as 0.4 micrograms per milliliter; in the test on Bact. vulgatus 1446 it was greater than 100 micrograms per milliliter; in the test with Staph. aureus 503, 0.4 micrograms per milliliter; in the test on Bact. fragilis 312, 100 micrograms per milliliter; with Staph. aureus 285 it was 0.4 micrograms per milliliter; with Bact. fragilis 960 it was 100 micrograms per milliliter. The “Minimum bacteriostatic inhibitory concentration” value is 0.4 micrograms per milliliter with Strept. pyogenes 308 A; 0.8 micrograms per milliliter in the test on Strept. faecium D; 1.5 micrograms per milliliter in test [1]; 25 micrograms per milliliter in the test with Escherichia coli DC 2; 3.1 micrograms per milliliter in test [2]; 0.4 micrograms per milliliter in the test on Staph. aureus SG 511. The “Minimum bacteriostatic inhibitory concentration” value in [3] was 0.8 micrograms per milliliter; with Strept. pyogenes 77 A, 0.4 micrograms per milliliter; in the test with Bact. fragilis 1313, 50 micrograms per milliliter; in the test on Propioni acnes 6922, 0.4 micrograms per milliliter.
